Measured values: patent US11186577B2, “Vasopressin receptor antagonists and products and methods related thereto” (BlackThorn Therapeutics, Inc., priority 2017, dated 2021)
Like-named read-outs stand apart in the source and are kept apart here.

How the values were obtained:
CD-1 mice = assay: Arginine-Vasopressin (AVP) induced behavior in mouse (i.c.v. AVP, scratching, digging, grooming); type: in vivo; settings: 100 mg/kg, po
Procedure: Administration of Arginine-Vasopressin (AVP) intracerebroventricularly (i.c.v.) elicits characteristic scratching, digging and grooming behavior in mice that can be measured readily and is sensitive to blockade with vasopressin antagonists (Meisenberg, 1988; Bleickart et al., 2009).
Male CD-1 mice (Charles River Germany) weighing 22-25 g upon the study in-life are used for this study. Animals are housed in groups of 4-5 per cage in standard temperature (22±1° C.) and light-controlled environment (lights on from 7 am to […]), with ad libitum access to food and water. Prior to commencing any procedures to the mice, they are allowed to habituate in the vivarium for a minimum of 7 days.
Anesthesia is induced in a plexiglass chamber for 2-3 min with 5% isoflurane, and maintained through a snout mask with 1-2% isoflurane thereafter. A homeothermic blanket system with a rectal probe is used to monitor and maintain the animal's body temperature at 37.0° C.±1.5° C. during the operation. […] The actual coordinates are calculated by the distance from the point in midline between the eyes and no skin incision is made. […]
Mice are observed and video-recorded for 15 minutes following AVP/saline administration and behaviors are measured (in seconds) and a cumulative time is calculated. […]

V1a receptors = V1a receptors (Rattus norvegicus (Rat), UniProt P30560); assay: Arginine-Vasopressin (AVP) induced phospho-Erk measurement in rat choroid plexus (RCP) cells; type: cell-based
Sequence of V1a receptors (P30560 whole entry): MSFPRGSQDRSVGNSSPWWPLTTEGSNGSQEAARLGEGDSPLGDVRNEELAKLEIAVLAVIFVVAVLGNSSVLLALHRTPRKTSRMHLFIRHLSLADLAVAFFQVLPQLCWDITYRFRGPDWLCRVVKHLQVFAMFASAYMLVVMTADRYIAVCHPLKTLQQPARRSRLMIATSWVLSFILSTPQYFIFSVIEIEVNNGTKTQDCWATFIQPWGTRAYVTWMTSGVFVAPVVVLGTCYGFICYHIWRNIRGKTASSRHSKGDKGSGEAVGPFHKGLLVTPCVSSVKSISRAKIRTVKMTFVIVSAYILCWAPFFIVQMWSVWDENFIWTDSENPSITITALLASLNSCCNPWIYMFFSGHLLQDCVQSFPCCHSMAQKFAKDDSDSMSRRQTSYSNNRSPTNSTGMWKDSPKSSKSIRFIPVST
Excerpt: When V1a receptors are coupled to phospholipase C (PLC), they increase intracellular Ca2+ concentrations and protein kinase C (PKC) activity, and transactivate the mitogen-activated protein kinases/extracellular signal-regulated kinase (MAPK/Erk) and PI3 kinase/Akt pathways upon activation (Chen et al., J Neuroendocrinol. 2010). Rat choroid plexus (RCP) cell lines express functional V1a receptors measured by increased calcium concentrations in response to V1a receptor agonists (Battle et al., Biochem Biophys Res Comm 2000).
RCP P9(18) cells were seeded 30K/well, in 100 μl growth medium containing 10% FBS in polystyrene 96-well plates and incubated at 37° C., 5% CO2 and incubated overnight. The following day, the growth medium was replaced with 50 μl pre-warmed HBSS containing 20 mM HEPES and the cells were incubated at 37° C., 5% CO2 for 1.5 hrs. 1 mM AVP (Sigma V9879) was freshly prepared in distilled water in a glass vial, and diluted to 3× concentrations in HBSS containing 20 mM HEPES and 0.1% BSA in glass vials and kept on ice. Cells were treated with 25 μl 3× vehicle, 3× eBioscience Cell Stimulation Cocktail (Thermo Fisher Scientific 00-4970-93) or 3×AVP and incubated at 37° C., 5% CO2 for 5, 10 or 20 min. Final concentrations of AVP: 10, 100 or 1000 nM. Final concentrations of components in Cell Stimulation Cocktail: 81 nM PMA, 1.34 μM ionomycin, 0.2% ethanol. Cells were lysed with 25 μl 4×CST lysis buffer containing protease and phosphatase inhibitors, PMSF and SDS and then stored at −80° C., for 48 h. The lysates were thawed, centrifuged at 2000 g for 30 min at 4° C. and 40 μl supernatants assayed for pERK1/2 (Thr202/Tyr204; Thr185/Tyr187) and total ERK1/2 using MSD kit K15107D. The MSD ECL data for the lysates were corrected for no cell blanks, then phospho-protein levels expressed as a ratio to the total ERK1/2 level. The ratios were expressed as fold-change from the vehicle-treated control at each timepoint.

MDR1 (P-gp) = assay: in vitro; settings: dog, MDCK-MDR1
in vitro = settings: dog, MDCK
[1] = system: wild-type (WT) MDCK cells; assay: MDR1-MDCK effective efflux assay (Transwell, 10 μM, 1 hour), wild-type MDCK cells; type: in vitro ADME; settings: wild-type MDCK cells, apical to basolateral (A>B), 10 μM, 1 hour
Method in brief: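 Wild-type and MDR1-MDCK monolayers cultured 3 days were dosed with compound at 10 μM (0.1% DMSO) in HBSS/25 mM HEPES pH 7.4, in both A>B and B>A directions, for 1 h at 37 °C. Samples were quantified by LC-MS/MS to give Papp and efflux ratio. Effective efflux ratio = ER(MDR1-MDCK)/ER(wild-type); Lucifer Yellow checked monolayer integrity.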

[2] = second study, read-out: IC50, AVP induced pERK1/2 to total ERK1/2
[3] = study 1, read-out: IC50, AVP induced pERK1/2 to total ERK1/2

## CN1Cc2cc(Cl)ccc2-n2c(nnc2[C@H]2CC[C@H](Oc3ccccn3)CC2)C1 [balovaptan, reference compound]
CD-1 mice
  antagonist activity to AVP-induced scratching behaviors: effective
V1a receptors; [2]
  IC50: 56.7 nM
V1a receptors; [3]
  IC50: 85.6 nM
MDR1 (P-gp)
  Papp A→B at 2 h: > 20 ×10⁻⁶ cm/s
In vitro
  Papp A→B at 2 h: 10 to 20 ×10⁻⁶ cm/s

## COC(=O)N1Cc2cc(Cl)ccc2-n2c(C3CC4(C3)CN(c3ccc(F)cn3)C4)nnc2C1C (single isomer, unassigned) [142A]
V1a receptors; [2]
  IC50: 20 nM
V1a receptors; [3]
  IC50: 16 nM
[1]
  Papp AB WT: ++++ ((++++) denotes >20 (10^-6 cm/sec))
